This passage reports TGI results from PubChem BioAssay (NCI).

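Values below derive from 48-hour exposures of cells grown in 96-well plates, with endpoints linearly interpolated between the two concentrations bracketing the appropriate inhibition level. TGI is the concentration that stops growth completely.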 Bounds are passed on as bounds.

Experiment in all cases: DTP human tumour cell line panel, 48 h
Assay [1] has as its system U251 CNS.
Assay [2] has as its system HCC-2998 colon.
Assay [3] has as its system CCRF-CEM leukemia.
For assay [4], the system named is LOX IMVI melanoma.
The test system of assay [5] is COLO 205 colon.
Assay [6] relates to SNB-75 CNS.
Assay [7] deals with SF-268 CNS.
Assay [8] concerns SK-MEL-2 melanoma.
Assay [9] has as its system NCI/ADR-RES ovarian.
The test system of assay [10] is NCI-H23 lung.
Assay [11] has as its system K-562 leukemia.
Assay [12] relates to SW-620 colon.
For assay [13], the system named is PC-3 prostate.
Assay [14] deals with NCI-H460 lung.
In assay [15] the test system is OVCAR-3 ovarian.
Assay [16] concerns UACC-62 melanoma.
Assay [17] concerns SN12C renal.
Assay [18] deals with MOLT-4 leukemia.
In assay [19] the test system is SF-295 CNS.
Assay [20] concerns ACHN renal.

Take `CC(=O)NC1C(OC2C(CO)OC(OCC3OC(n4ccc(N)nc4=O)C(O)C3O)C(NC(C)=O)C2O)OC(CO)C(O)C1O` (stereo not given): the TGI in [1], in assay [2], in assay [3], in assay [4], in assay [5] and in [6] was above 100 µM throughout. For the same compound, the TGI in assay [7], in assay [8], in assay [9], in [10], in [11] and in [12] was above 100 µM in each case. Also, the TGI in assay [13], in [14], in assay [15], in assay [16], in assay [17] and in [18] was above 100 µM throughout. Moreover, the TGI in assay [19] and in assay [20] was above 100 µM in each case.
For the compound `CN(C)CCNC1=CC(=O)c2nc3ccccc3c3ccnc1c23`, the TGI in assay [1] is 25.5 µM; in assay [2] it was 16.8 µM; in assay [3] it was 21.3 µM; in assay [4] it was 5.94 µM; in assay [5], 9.21 µM; in assay [6], 27.8 µM. The TGI was 21.5 µM in [7]; 20.7 µM in assay [8]; 28.5 µM in assay [9]; 18.9 µM in assay [10]; 17.7 µM in assay [11]; 18 µM in [12]. Also, the TGI in [13] amounted to 17.2 µM; in assay [14], 9.91 µM; in assay [15], 16.4 µM; in assay [16], 18.2 µM; in [17], 20.3 µM; in [18], 13.6 µM. Also, the TGI in [19] came out at 19.8 µM; in assay [20], 15 µM.
Regarding `CC(C)(C)C1(O)C=C(O)C(=O)N1NC(=O)c1ccccc1Nc1ccccc1` (stereo not given), the TGI in assay [1] is above 100 µM; in [2], 62.9 µM; in assay [3] it was 57.6 µM; in assay [4], above 100 µM; in assay [5] it was above 100 µM; in assay [6], above 100 µM. Besides, the TGI in assay [7], in [8], in [9], in assay [10], in assay [11] and in assay [12] was above 100 µM throughout. The TGI in assay [13] was above 100 µM; in assay [14], above 100 µM; in assay [15] it was 31.9 µM; in assay [16], 63 µM; in assay [17], above 100 µM; in [18] it was 29 µM. Moreover, the concentration for total growth inhibition (TGI) in assay [19] and in assay [20] was above 100 µM in each case.
As for `CC1C2(C)OC(=N)C(C#N)(C(C)O2)C1(C#N)C#N` (stereo not given), the TGI in assay [1] was 50 µM; in assay [2], 50.5 µM; in assay [3], 51.3 µM; in [4], 41.4 µM; in assay [5], 24.5 µM; in [6], above 100 µM. Moreover, the concentration for total growth inhibition (TGI) in assay [7] was above 100 µM; in assay [8], 46.6 µM; in [9] it was above 100 µM; in [10], 86.8 µM; in assay [11], above 100 µM; in [12], 43 µM. For the same compound, the concentration for total growth inhibition (TGI) was above 100 µM in assay [13]; 42.8 µM in assay [14]; 51.5 µM in [15]; 43.8 µM in [16]; 29.8 µM in [17]; above 100 µM in [18]. Further, the concentration for total growth inhibition (TGI) in assay [19] and in [20] was above 100 µM throughout.
In the case of `COc1ccc2oc(=O)c(-c3nc4ccccc4o3)cc2c1`, the TGI in assay [1], in assay [2], in assay [3], in [4], in assay [5] and in [6] was above 100 µM in each case. Further, the total growth inhibition concentration (TGI) in assay [7], in [8], in [9], in assay [10], in assay [11] and in assay [12] was above 100 µM throughout. Moreover, the TGI in [13], in assay [14], in assay [15], in assay [16], in [17] and in assay [18] was above 100 µM in each case. In addition, the TGI in assay [19] and in assay [20] was above 100 µM in each case.

The term TGI denotes the concentration giving total growth inhibition. Low readings indicate greater sensitivity of the cells, high ones lower sensitivity of the cells.
